Activity calls are given as the source filed them. The calls are words filed in the database; no cut-off is given here.
Assays:
[1] = test system: SK-HEP1; assay: Induction of apoptosis in human SK-Hep1 cells assessed as early apoptotic cells at 40 nM incubated for 24 hrs by annexin V-FITC/PI staining flow cytometry (reference value: 0.30 %); type: functional
[2] = test system: SK-HEP1; assay: Induction of apoptosis in human SK-Hep1 cells assessed as necrotic cells at 10 nM incubated for 24 hrs by annexin V-FITC/PI staining flow cytometry (reference value: 0.73 %); type: functional
[3] = test system: Huh-7; assay: Induction of apoptosis in human Huh-7 cells assessed as early apoptotic cells at 80 nM incubated for 24 hrs by annexin V-FITC/PI staining flow cytometry (reference value: 0.33 %); type: functional
[4] = test system: SK-HEP1; assay: Induction of apoptosis in human SK-Hep1 cells assessed as early apoptotic cells at 80 nM incubated for 24 hrs by annexin V-FITC/PI staining flow cytometry (reference value: 0.30 %); type: functional
[5] = test system: SK-HEP1; assay: Antiproliferative activity against human SK-Hep1 cells assessed as inhibition of cell viability by MTT assay; type: functional, cell-based; details: time 24-72 hrs, TDE = time-dependent effect
[6] = test system: SK-HEP1; assay: Antiproliferative activity against human SK-Hep1 cells assessed as inhibition of cell viability treated for 24 to 72 hrs by MTT assay; type: functional, cell-based; details: time 24-72 hrs, DDE = dose-dependent effect
[7] = test system: SK-HEP1; assay: Induction of apoptosis in human SK-Hep1 cells assessed as chromatin agglutination incubated for 24 hrs by Giemsa staining based microscopy; type: functional, cell-based; details: dose 12-60 nM, DDE = dose-dependent effect
[8] = test system: Huh-7; assay: Antiproliferative activity against human Huh-7 cells treated for 72 hrs by MTT assay; type: functional, cell-based; details: Huh-7, 72 h
[9] = Induction of apoptosis in rat HSC-T6 cells assessed as late apoptotic cells at 10 nM pretreated with TGFbeta-1 for 1 day followed by compound addition and measured after 24 hrs by flow cytometry (reference value: 1.76 %); type: functional
[10] = test system: SK-HEP1; assay: Induction of cell cycle arrest in human SK-Hep1 cells assessed as accumulation at S phase at 10 nM treated for 24 hrs by PI staining based flow cytometry (reference value: 24.98 %); type: functional
[11] = test system: Huh-7; assay: Induction of apoptosis in human Huh-7 cells assessed as necrotic cells at 40 nM incubated for 24 hrs by annexin V-FITC/PI staining flow cytometry (reference value: 1.08 %); type: functional
[12] = test system: Huh-7; assay: Induction of apoptosis in human Huh-7 cells assessed as change in cell membrane permeability by measuring blue fluorescence incubated for 24 hrs by Hoechst staining based microscopy; type: functional; details: dose 12-60 nM, DDE = dose-dependent effect
[13] = test system: Huh-7; assay: Induction of cell cycle arrest in human Huh-7 cells assessed as accumulation at G2 phase at 40 nM treated for 24 hrs by PI staining based flow cytometry (reference value: 15.90 %); type: functional
[14] = test system: HCC; assay: Inhibition of cell proliferation of human HCC cells treated for 24 hrs by EdU staining based fluorescence microscopy assay; type: functional; details: dose 3-18 nM, DDE = dose-dependent effect
[15] = test system: HSC-T6; assay: Antiproliferative activity against TGF-beta-1-stimulated rat HSC-T6 cells assessed as suppression of cell proliferation at 0.70 to 60 uM preincubated with TGFbeta-1 for 1 day followed by compound addition and measured after 48 hrs; type: functional, cell-based; details: dose 0.7-60 µM
[16] = Induction of apoptosis in rat HSC-T6 cells assessed as early apoptotic cells at 10 nM pretreated with TGFbeta-1 for 1 day followed by compound addition and measured after 24 hrs by flow cytometry (reference value: 0.17 %); type: functional
[17] = Induction of apoptosis in rat HSC-T6 cells assessed as early apoptotic cells at 80 nM pretreated with TGFbeta-1 for 1 day followed by compound addition and measured after 24 hrs by flow cytometry (reference value: 0.17 %); type: functional
[18] = test system: Huh-7; assay: Induction of apoptosis in human Huh-7 cells assessed as chromatin agglutination incubated for 24 hrs by Giemsa staining based microscopy; type: functional, cell-based; details: dose 12-60 nM, DDE = dose-dependent effect
[19] = Induction of apoptosis in rat HSC-T6 cells assessed as necrotic cells at 80 nM pretreated with TGFbeta-1 for 1 day followed by compound addition and measured after 24 hrs by flow cytometry (reference value: 0.56 %); type: functional
[20] = test system: SK-HEP1; assay: Induction of cell cycle arrest in human SK-Hep1 cells assessed as accumulation at S phase at 80 nM treated for 24 hrs by PI staining based flow cytometry (reference value: 24.98 %); type: functional
[21] = test system: Huh-7; assay: Inhibition of cell invasion in human Huh-7 cells at 3 to 18 nM incubated for 24 hrs by matrigel based assay; type: functional; details: dose 3-18 nM
[22] = test system: SK-HEP1; assay: Inhibition of cell invasion in human SK-HEP1 cells at 3 to 18 nM incubated for 24 hrs by matrigel based assay; type: functional; details: dose 3-18 nM
[23] = test system: Huh-7; assay: Induction of apoptosis in human Huh-7 cells assessed as early apoptotic cells at 40 nM incubated for 24 hrs by annexin V-FITC/PI staining flow cytometry (reference value: 0.33 %); type: functional
[24] = test system: HSC-T6; assay: Suppression of TGF-beta-1-stimulated rat HSC-T6 cells activation assessed as reduction in Col-1 levels preincubated with TGFbeta-1 followed by compound addition and measured after 24 to 48 hrs by ELISA; type: functional, cell-based; details: dose 10-80 nM, time 24-48 hrs, DDE = dose-dependent effect
[25] = test system: Huh-7; assay: Antiproliferative activity against human Huh-7 cells assessed as inhibition of cell viability by MTT assay; type: functional, cell-based; details: time 24-72 hrs, TDE = time-dependent effect
[26] = Induction of apoptosis in rat HSC-T6 cells assessed as viable cells at 40 nM pretreated with TGFbeta-1 for 1 day followed by compound addition and measured after 24 hrs by flow cytometry (reference value: 97.5 %); type: functional; details: read-out: Activity
[27] = test system: Huh-7; assay: Induction of mitochondrial membrane potential changes in human Huh-7 cells assessed as decrease in TMRE positive cells at 80 nM incubated for 24 hrs by TMRE staining based flow cytometry; type: functional, cell-based

| SMILES | Activity [1] [%] | Activity [2] [%] | Activity [3] [%] | Activity [4] [%] | Activity [5] | Activity [6] | Activity [7] | IC50 [8] [nM] | Activity [9] [%] | Activity [10] [%] | Activity [11] [%] | Activity [12] | Activity [13] [%] | inhibition [14] | Activity [15] | Activity [16] [%] | Activity [17] [%] | Activity [18] | Activity [19] [%] | Activity [20] [%] | other results |
| --- | --- | --- | --- | --- | --- | --- | --- | --- | --- | --- | --- | --- | --- | --- | --- | --- | --- | --- | --- | --- | --- |
| CC(=O)Oc1ccc2[nH]c3c(c2c1)CCN1C(=O)c2cc(F)cc(F)c2N(c2cccc(F)c2)C31 (centres undefined) | 8.25 | 0.58 | 1.1 | 13.5 | Tde | Dde | Dde | 30 | 8.67 | 19.4 | 10.1 | Dde | 50.27 | Dde | Active | 0.52 | 0.83 | Dde | 4.44 | 3.88 | inhibition [21]: Active; inhibition [22]: Active; Activity [23]: 1.37%; Activity [24]: Dde; Activity [25]: Tde; viability at 0.04 µM [26]: 85.6%; Activity [27]: Active |
| O=C1c2cc(F)cc(F)c2N(c2cccc(F)c2)C2c3[nH]c4ccc(O)cc4c3CCN12 (centres undefined) | 8.02 | 2.39 | 1.71 | 0.75 | Tde | Dde | Dde | 40 | 5.1 | 18.42 | 4.51 | Dde | 63.75 | Dde | Active | 0.084 | 0.72 | Dde | 3.62 | 4.5 | inhibition [21]: Active; inhibition [22]: Active; Activity [23]: 2.51%; Activity [24]: Dde; Activity [25]: Tde; viability at 0.04 µM [26]: 98.3%; Activity [27]: Active |

From ChEMBL document CHEMBL5154935, “Design, Synthesis, and Biological Evaluation of Novel Evodiamine Derivatives as Potential Antihepatocellular Carcinoma Agents” (J Med Chem, 2022)
